The record followed here is patent publication US20230167109A1, “Aminopiperidine Amides, Derivatives, Compositions, and Uses Related to CXCR4 Modulation” (Emory University, priority 2020, published 2023).

Test [1] deals with CXCR4-expressing infiltrating cells. Description: Immunohistochemistry of paw tissue with anti-CXCR4 antibody. In kind it is in vivo. The note with it: paw tissue of Z7R-treated mouse vs inflamed tissue. The procedure: The avidin-biotin complex method was used to detect the proteins CXCR4 with anti-CXCR4 antibody (R&D System) at dilution 1:500. Formalin-fixed and paraffin-embedded tissues were deparaffinized and subsequently microwaved in 10 mM of sodium citrate buffer (pH 6.0) to retrieve antigens. After pre-incubation with hydrogen peroxide, avidin/biotin blocking kit (Invitrogen Co, CA), and horse serum (Vector Laboratories), the primary antibodies were applied overnight at 4° C. temperature. After incubation with the secondary antibody (rabbit anti-mouse biotinylated; Invitrogen Co, CA), the avidin-biotin complex was added and the enzyme activity was visualized with diaminobenzidine (ABC kit, Vector laboratories). Counterstaining was performed with hematoxylin.

The subject of test [2] is carrageenan-induced paw edema. As to the kind of experiment: In vivo anti-inflammation study, carrageenan-induced mouse paw edema model. The note with it: 10 mg/kg i.p., once a day; mice sacrificed 74 h after carrageenan; n=5. The procedure:
Acute paw inflammation was induced by subcutaneous injection of 50 μL of λ-carrageenan in left hind paw. The mice in the treatment group were all administered Z7R at 10 mg/kg i.p., while control animals received corresponding i.p. injection of vehicle. Acute inflammation was induced by subcutaneous injection of […], of λ-carrageenan (1% w/v in saline) into the left hind paws of male nude mice (6 weeks, 20 g, Jackson Laboratory, Strain JAZ 007850 J:NU); the other hind paw was used as the non-inflammation control. The compounds were administered intraperitoneally (i.p. injection), 30 min after carrageenan challenge with the dose of 10 mg/kg using the formulation of 10% DMSO and 40% (2-hydroxypropyl)-β-cyclodextrin (CD) in PBS, and then once a day following the initial dose. The mice were sacrificed 74 h after inflammation was induced and 2 h after the last injection of the compounds. The hind paws of the mice were photographed, the thicknesses of the paws were measured by a caliper, and the weights of the paws were measured by a balance after transecting at the level of the malleoli. To quantify the edema, the measured values of the untreated group were subtracted from the treated group. The inflammation suppression percentage was calculated by comparing the compound-treated groups to the control group (n=5). Fixed paw tissue was sliced and stained with H&E for histology study.
Background: The carrageenan paw model is a standard test of acute inflammation.

The target in another test is T1, CXCR4 (Homo sapiens, UniProt P61073).
T1 construct: endogenous in cells; host or cells: MDA-MB-231
T1 sequence (P61073 whole entry): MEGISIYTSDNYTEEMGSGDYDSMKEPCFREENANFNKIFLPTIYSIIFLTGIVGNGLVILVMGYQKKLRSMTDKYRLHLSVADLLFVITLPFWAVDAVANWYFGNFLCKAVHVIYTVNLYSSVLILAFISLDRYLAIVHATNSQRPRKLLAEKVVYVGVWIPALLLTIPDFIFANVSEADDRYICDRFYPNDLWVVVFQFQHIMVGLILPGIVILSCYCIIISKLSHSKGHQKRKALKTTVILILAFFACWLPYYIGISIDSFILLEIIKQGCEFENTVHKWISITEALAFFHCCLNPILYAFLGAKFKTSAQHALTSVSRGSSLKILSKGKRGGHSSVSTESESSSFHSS
As to the kind of experiment: In vitro binding assay: blocking of CXCR4-targeted TN14003 conjugate on MDA-MB-231 cells. The procedure: (§1) EC (effective concentration) was calculated as the concentration at which the compound blocks >50% of CXCR4-targeted peptidomimetic conjugate (rhodamine Red X-TN14003). The inhibition % against the chemoattract, CXCL12 was determined by Matrigel invasion assay using 100 nM of compounds.
(§2) After computer evaluation of chemical libraries, seven compounds were tested by in vitro assays. The first binding assay quantified the affinity of compounds to the receptor by measuring the fluorescence of CXCR4-targeted peptidomimetic conjugate (rhodamine Red X-TN14003) after treating CXCR4-positive with each compound, which presents a lower fluorescent intensity for the compound with higher affinity. […] As a secondary orthogonal functional assay, Matrigel invasion assays were performed which measures the inhibitory efficacies of compounds against the chemotaxis between CXCR4-positive cells and the chemokine, CXCL12.
MDA-MB-231 cells were cultured in an eight-well slide chamber for two days. The cells were pre-incubated with the compounds for 15 min, and then fixed with 4% formaldehyde. […] Pictures were analyzed quantitatively with ImageJ. EC (effective concentration) is determined for the concentration at with the compound blocks >50% of CXCR4-targeted TN14003 conjugate using 1, 10, 100, and 1000 nM of compounds. […]

The next test relates to MDA-MB-231 cells. Description: In vitro Matrigel invasion assay (chemotaxis towards CXCL12). In kind it is cell-based. The note with it: Homo sapiens, compound at 100 nM, 200 ng/ml CXCL12 as chemoattractant, 22 h. The procedure:
as §1, §2
Matrigel invasion chambers were used for invasion assays. MDA-MB-231 cells were cultured on a layer of Matrigel in the upper chamber with compounds at 100 nM, while 200 ng/ml of CXCL12 was added in the lower chamber as a chemoattractant. […] Invading cells at the bottom of the Matrigel were fixed in methanol and stained with H&E. The percentage of invading cells was determined by counting the H&E-stained cells.

Broadly, the IC50 is the concentration that inhibits the measured activity by half. As usually defined, the inhibition is how much of the control response was suppressed. A higher inhibition goes with a strong effect. On to `N=C(N)NCCCC(N)C(=O)NC1CCN(C(=O)CCn2ccc3ccncc32)CC1` (stereo not drawn) [Z7R, N-(1-(3-(pyrrolo[2,3-c]pyridin-1-yl)propanoyl)piperidin-4-yl)-2-amino-5-guanidinopentanamide], for which the “CXCR4-expressing infiltrating cells in carrageenan-induced inflammatory tissue” value in test [1] was “reduced presence of CXCR4s”. Besides, the “anti-inflammatory activity: reduction of edema (paw) weight vs untreated mice” value in test [2] came to 50%. Further, the IC50 on CXCR4 (fitted with GraphPad Prism 5, read-out: affinity IC50) amounted to 1.25 nM. Besides, the inhibition at 0.1 µM in the test with MDA-MB-231 cells amounted to 78.5%.
Consider `NC(C(=O)NC1CCN(C(=O)CCn2ccc3ccncc32)CC1)c1ccccc1` (stereo not drawn) [ZINC 72372983, N-(1-(3-(pyrrolo[2,3-c]pyridin-1-yl)propanoyl)piperidin-4-yl)-2-amino-2-phenylacetamide], for which the EC50 at CXCR4 (compounds tested at 1, 10, 100 and 1000 nM, read-out: binding affinity (EC, effective concentration: concentration at which the compound blocks more than 50% of rhodamine Red X-TN14003)) came out at 100 nM. Also, the inhibition at 0.1 µM with MDA-MB-231 cells is 69%.
